In ChEMBL document CHEMBL1126580, “Enantiospecific syntheses of alpha-(fluoromethyl)tryptophan analogues: interactions with tryptophan hydroxylase and aromatic L-amino acid decarboxylase” (J Med Chem, 1993) one finds k2 data, which are given here for 1 compound.

The target of this experiment is T1, Aromatic-L-amino-acid decarboxylase (Mus musculus) (UniProt O88533).
T1 sequence (whole entry): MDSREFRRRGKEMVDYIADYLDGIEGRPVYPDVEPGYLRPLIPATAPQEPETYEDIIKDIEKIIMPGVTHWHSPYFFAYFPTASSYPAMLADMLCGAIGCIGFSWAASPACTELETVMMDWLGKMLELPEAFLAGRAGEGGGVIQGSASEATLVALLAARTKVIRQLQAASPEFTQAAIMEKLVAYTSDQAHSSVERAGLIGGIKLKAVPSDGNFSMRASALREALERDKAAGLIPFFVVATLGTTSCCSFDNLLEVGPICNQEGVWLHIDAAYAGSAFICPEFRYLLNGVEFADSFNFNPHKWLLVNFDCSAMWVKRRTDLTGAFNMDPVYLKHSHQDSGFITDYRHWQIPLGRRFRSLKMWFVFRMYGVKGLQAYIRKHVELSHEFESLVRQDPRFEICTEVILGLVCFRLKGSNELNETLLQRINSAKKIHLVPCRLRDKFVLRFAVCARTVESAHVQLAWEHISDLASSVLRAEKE
In words: First-order inactivation rate constant (k2) was evaluated as an inhibitor of murine liver aromatic L-amino acid decarboxylase (AADC).

Regarding `N[C@@](CF)(Cc1c[nH]c2ccc(O)cc12)C(=O)O`, the k2 was found to be 2.26 min⁻¹.
